In US20070270431A1, “Preventive and/or Therapeutic Medicine for Rheumatoid Arthritis” (Kowa Co., Ltd., priority 2004, published 2007):

Tested on: rats of a collagen-induced arthritis model
Assay: Suppression of both-hindlimb edema in rats of a collagen-induced arthritis model
Type: in vivo, rat
Details: 30 days after initial sensitization, pyridazinone 30 mg/kg twice daily, methotrexate 0.05 mg/kg once daily
Description: The effect on suppressing edema of both hindlimbs by 2-benzyl-5-(4-chlorophenyl)-6-4-(methylthio)phenyl]-2H-pyridazin-3-one (synthesized through the aforementioned method) and methotrexate were determined both in the cases of combined administration and solo administration through the following procedure. For the experiment-rats of a collagen-induced arthritis model were used. (FDA, CBER, CDER, CDRH: Guidance for industry—Clinical development programs for drugs devices and biological products for the treatment of rheumatoid arthritis (RA)-(1999)). Lewis female rats (LFW/Crj) (obtained from Charles River Laboratories Japan, Inc.) were employed as test animals.
For each 8-week-old LEW/Crj rat, the volume of a portion from the ankle to the toe tip of each hindlimb was measured by means of a plethysmometer for small animals (TK-101CMP, product of Unicom) and the total volume was employed as a volume of the hindlimbs (hereinafter referred to as both-hindlimb volume) at the start of the test (hereinafter referred to as Pre value). By use of the Pre value as an index, the rats were divided into groups by one-parameter-based block randomization so that the values in the groups were averaged out.
The collagen emulsion for sensitization employed for inducing arthritis in rats was prepared by homogenizing a 0.3% Type II collagen liquid (product of Collagen Research Center), adjuvant peptide (product of Peptide Institute, Inc.), and adjuvant incomplete Freund (product of DIFCO) by means of a Handy Micro Homogenizer (product of Microtec Nition) under cooling with ice. The thus-prepared emulsion was intracutaneously injected to 10 sites in the back of each rat at 0.1 mL/site, to thereby initially sensitize the rat. Seven days after initial sensitization the same emulsion (0.12 mL) was intracutaneously injected to the tail head of the rat for booster sensitization
Administration of medicines was carried out on the day after initial sensitizaton to day 29. To the 2-benzyl-5-(4-chlorophenyl)-68 4-(methylthio)phenyl]-2H-pyridazin-3-one solo administration group, the medicine was orally administered twice; in the morning (9:00 to 11:00) and in the evening (15:30 to 17:30) at a dose of 30 mg/kg. […]
Thirty days after initial sensitization, both-hindlimb volume was measured. Volume of both-hindlimb edema was calculated by subtracting the Pre value from the thus-measured value.
Table 1 and FIG. 1 show both-hindlimb edema volume of rats which was measured 30 days after initial sensitization where the rats were divided into the 2-benzyl-5-(4-chlorophenyl)-6-[4-(methylthio)phenyl]-2H-pyridazin-3-one solo administration group, the methotrexate solo administration group, and the combined administration group. […]

## CSc1ccc(-c2nn(Cc3ccccc3)c(=O)cc2-c2ccc(Cl)cc2)cc1 [2-benzyl-5-(4-chlorophenyl)-6-[4-(methylthio)phenyl]-2H-pyridazin-3-one]
Oral administration from day after sensitization to day 29, average of seven rats ± standard error
  Both-hindlimb edema volume: 1.04 ± 0.32 mL
oral
  Edema suppression effect (in words): did not result in potent edema suppression effects
  Relative index (average edema volume of administration group / control group): 0.66
Vs control group, oral
  Percent edema suppression: 34%
